Results on 68 compounds are retold here after US6972296B2, “Carboxylic acid derivatives that inhibit the binding of integrins to their receptors” (Encysive Pharmaceuticals Inc., priority 1999, dated 2005).

The test has as its target T1, α4β1 integrin (Homo sapiens, UniProt P05556+P13612).
T1 construct: endogenous in cells; host or cells: Ramos cells
As to the kind of experiment: Adhesion of calcein-labeled Ramos cells to CS1 (fibronectin) peptide conjugated ovalbumin. The conditions noted are these: Ramos cell adhesion to CS1 conjugated ovalbumin. The format is cell-based. The method, boiled down:
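Calcein AM-labelled Ramos cells (2.5×10^5/well) with compound, up to 100 μM, added to plates coated with CS1 peptide–ovalbumin (0.5 μg/ml) and blocked with 3% BSA. Binding buffer TBS pH 7.5 with 1 mM each MgCl2, CaCl2, MnCl2; 30 min, 37 °C. After washes, adherent cells lysed and read fluorometrically; […].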

The mark [1] stands for this setting: Table 7, dose required to give 50% inhibition.

T1 sequence (P13612 34-1032): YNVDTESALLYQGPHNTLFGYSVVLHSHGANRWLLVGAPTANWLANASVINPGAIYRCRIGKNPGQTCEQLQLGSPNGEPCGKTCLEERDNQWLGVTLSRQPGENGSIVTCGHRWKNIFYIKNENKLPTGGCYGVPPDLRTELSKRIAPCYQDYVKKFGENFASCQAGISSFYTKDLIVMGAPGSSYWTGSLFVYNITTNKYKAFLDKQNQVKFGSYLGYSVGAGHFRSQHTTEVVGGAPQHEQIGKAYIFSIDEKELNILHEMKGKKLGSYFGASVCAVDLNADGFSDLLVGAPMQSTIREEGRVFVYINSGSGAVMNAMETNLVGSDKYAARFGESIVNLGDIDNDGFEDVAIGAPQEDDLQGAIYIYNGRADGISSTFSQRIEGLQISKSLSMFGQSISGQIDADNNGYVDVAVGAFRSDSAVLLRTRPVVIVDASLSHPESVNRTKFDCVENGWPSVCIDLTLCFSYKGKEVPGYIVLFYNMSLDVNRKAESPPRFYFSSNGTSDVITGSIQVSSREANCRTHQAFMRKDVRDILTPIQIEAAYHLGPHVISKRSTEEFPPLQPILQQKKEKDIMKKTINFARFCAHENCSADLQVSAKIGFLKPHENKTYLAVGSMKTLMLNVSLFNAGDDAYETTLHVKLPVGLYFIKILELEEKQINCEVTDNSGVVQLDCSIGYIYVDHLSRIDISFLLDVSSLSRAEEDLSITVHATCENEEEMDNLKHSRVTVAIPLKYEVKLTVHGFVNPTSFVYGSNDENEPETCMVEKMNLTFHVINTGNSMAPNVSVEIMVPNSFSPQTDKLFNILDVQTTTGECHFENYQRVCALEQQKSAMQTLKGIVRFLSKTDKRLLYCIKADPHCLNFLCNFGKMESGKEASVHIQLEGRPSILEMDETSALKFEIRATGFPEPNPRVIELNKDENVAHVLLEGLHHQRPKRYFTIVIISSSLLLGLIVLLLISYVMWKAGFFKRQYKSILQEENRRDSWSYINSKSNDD
T1 sequence (P05556 21-798): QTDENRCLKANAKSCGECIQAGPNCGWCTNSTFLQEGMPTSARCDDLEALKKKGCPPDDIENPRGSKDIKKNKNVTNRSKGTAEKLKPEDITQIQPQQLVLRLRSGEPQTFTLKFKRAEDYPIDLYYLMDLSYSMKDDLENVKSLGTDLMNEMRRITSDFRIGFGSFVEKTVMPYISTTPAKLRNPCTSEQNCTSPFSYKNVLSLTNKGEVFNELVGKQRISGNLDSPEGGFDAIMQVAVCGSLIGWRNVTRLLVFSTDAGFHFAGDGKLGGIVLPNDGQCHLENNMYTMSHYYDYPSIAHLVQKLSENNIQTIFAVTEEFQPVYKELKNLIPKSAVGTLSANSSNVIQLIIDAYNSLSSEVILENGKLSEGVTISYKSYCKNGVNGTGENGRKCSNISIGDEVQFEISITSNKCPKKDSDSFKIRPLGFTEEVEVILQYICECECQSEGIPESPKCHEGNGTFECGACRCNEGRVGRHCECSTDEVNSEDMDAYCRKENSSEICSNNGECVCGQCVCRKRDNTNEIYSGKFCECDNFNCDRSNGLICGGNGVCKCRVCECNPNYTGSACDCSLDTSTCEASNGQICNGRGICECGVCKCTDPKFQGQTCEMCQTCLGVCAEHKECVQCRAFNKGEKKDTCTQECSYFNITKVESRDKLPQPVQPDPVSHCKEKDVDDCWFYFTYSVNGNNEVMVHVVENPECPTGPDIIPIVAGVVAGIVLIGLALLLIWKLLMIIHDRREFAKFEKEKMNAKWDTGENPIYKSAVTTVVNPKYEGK

On to `CCOc1cccc(Cl)c1Cn1cc(C)c(O)c(NC(=O)NC(CC(=O)O)c2ccc(S(C)(=O)=O)cc2)c1=O` (centres unmarked), for which, under setting [1], the half-maximal inhibitory concentration (IC50) was 8 nM.

Take `CCOc1cccc(Cl)c1Cn1cc(C)c(O)c(NC(=O)NC(CC(=O)O)c2ccc3ccccc3c2)c1=O` (centres unmarked): under setting [1], the IC50 is 13 nM.

For the compound `Cc1cn(Cc2ccccc2Cl)c(=O)c(NC(=O)NC(CC(=O)O)c2cccc(N3CCCCC3)c2)c1O` (centres unmarked), the IC50 under setting [1] is 22 nM.

Turning to `Cc1cn(Cc2ccccc2Cl)c(=O)c(NC(=O)NC(CC(=O)O)c2ccc(S(C)(=O)=O)cc2)c1O` (centres unmarked), the IC50 under setting [1] is 134 nM.

For `Cc1cn(Cc2ccccc2Cl)c(=O)c(NC(=O)NC(CC(=O)O)c2cccc(N3CCCC3)c2)c1O` (centres unmarked), under setting [1], the IC50 is 10 nM.

`CCOc1cc([C@H](CC(=O)O)NC(=O)Nc2c(O)c3c(n(Cc4c(C)cccc4Cl)c2=O)CCC3)ccc1Cl`: the IC50 under setting [1] is 25 nM.

As for `Cc1cccc(Cl)c1Cn1c2c(c(O)c(NC(=O)N[C@@H](CC(=O)O)c3ccc(Cl)c(OC(C)C)c3)c1=O)CCC2`, the IC50 under setting [1] was 23 nM.

Regarding `Cc1ccc([C@H](CC(=O)O)NC(=O)Nc2c(O)c(C)cn(Cc3cc(S(=O)(=O)N4CCCCC4)ccc3Cl)c2=O)cc1`, the IC50 under setting [1] is 27 nM.

With `Cc1ccc([C@H](CC(=O)O)NC(=O)Nc2c(O)c(C)cn(Cc3cc(S(=O)(=O)N4CCCC4)ccc3Cl)c2=O)cc1`, under setting [1], the IC50 was 15 nM.

Consider `CCOc1ccc(Cl)c(Cn2cc(C)c(O)c(NC(=O)N[C@@H](CC(=O)O)c3ccc(C)cc3)c2=O)c1`, for which the IC50 under setting [1] was 4 nM.

With `CCCOc1ccc(Cl)c(Cn2cc(C)c(O)c(NC(=O)N[C@@H](CC(=O)O)c3ccc(C)cc3)c2=O)c1`, the IC50 under setting [1] is 6 nM.

Regarding `COCCOc1cccc(Cl)c1Cn1c2c(c(O)c(NC(=O)N[C@@H](CC(=O)O)c3ccc(C)cc3)c1=O)CCC2`, the IC50 under setting [1] is 6 nM.

Consider `CCOc1cccc([C@H](CC(=O)O)NC(=O)Nc2c(O)c3c(n(Cc4c(Cl)cccc4OCCOC)c2=O)CCC3)c1`, for which, under setting [1], the IC50 is 4 nM.

`CCOc1cccc(Cl)c1Cn1c2c(c(O)c(NC(=O)N[C@@H](CC(=O)O)c3cccc(CC(C)C)c3)c1=O)CCC2`: the IC50 under setting [1] was 4 nM.

As to `CCCc1cn(Cc2c(Cl)cccc2OCC)c(=O)c(NC(=O)N[C@@H](CC(=O)O)c2ccc(C)cc2)c1O`, the IC50 under setting [1] is 20 nM.

In the case of `CCOc1cccc(Cl)c1Cn1c2c(c(O)c(NC(=O)N[C@@H](CC(=O)O)c3ccc(C)cc3)c1=O)CCC2`, the IC50 under setting [1] is 3 nM.

In the case of `CCOc1cccc(Cl)c1Cn1c2c(c(O)c(NC(=O)N[C@@H](CC(=O)O)c3cccc(OC4CCCC4)c3)c1=O)CCC2`, under setting [1], the IC50 is 6 nM.

Consider `CCCc1cn(Cc2c(Cl)cccc2OCC)c(=O)c(NC(=O)N[C@@H](CC(=O)O)c2cccc(OCC)c2)c1O`, for which the IC50 under setting [1] is 6 nM.

Turning to `CCCc1cn(Cc2c(Cl)cccc2OCC)c(=O)c(NC(=O)N[C@@H](CC(=O)O)c2ccccc2)c1O`, under setting [1], the IC50 is 23 nM.

As for `CCCc1cn(Cc2c(Cl)cccc2OCC)c(=O)c(NC(=O)N[C@@H](CC(=O)O)c2cccc(OC(C)C)c2)c1O`, the half-maximal inhibitory concentration (IC50) under setting [1] was 22 nM.

On to `CCOc1ccc2cc([C@H](CC(=O)O)NC(=O)Nc3c(O)c(C)cn(Cc4c(Cl)cccc4OCC)c3=O)ccc2c1`, for which, under setting [1], the IC50 was 6 nM.

As to `CCOc1cccc(Cl)c1Cn1c(C)c(C)c(O)c(NC(=O)N[C@@H](CC(=O)O)c2ccccc2)c1=O`, the half-maximal inhibitory concentration (IC50) under setting [1] is 4 nM.

`CCOc1cccc(Cl)c1Cn1c(C)c(C)c(O)c(NC(=O)N[C@@H](CC(=O)O)c2ccc(C)cc2)c1=O`: under setting [1], the IC50 was 4 nM.

Turning to `CCOc1cccc([C@H](CC(=O)O)NC(=O)Nc2c(O)c(C)c(C)n(Cc3c(Cl)cccc3OCC)c2=O)c1`, the IC50 under setting [1] is 4 nM.

Take `CCOc1cccc(Cl)c1Cn1cc(C)c(O)c(NC(=O)N[C@@H](CC(=O)O)c2cccc(C(F)(F)F)c2)c1=O`: under setting [1], the half-inhibitory concentration (IC50) was 3 nM.

With `CCOc1cccc(Cl)c1Cn1c(C)c(CC)c(O)c(NC(=O)N[C@@H](CC(=O)O)c2ccc(C)cc2)c1=O`, the IC50 under setting [1] was 4 nM.

Consider `CCOc1cccc([C@H](CC(=O)O)NC(=O)Nc2c(O)c(CC)c(C)n(Cc3c(Cl)cccc3OCC)c2=O)c1`, for which the IC50 under setting [1] is 4 nM.

In the case of `CCOc1cccc(Cl)c1Cn1c(C)c(CC)c(O)c(NC(=O)N[C@@H](CC(=O)O)c2ccccc2)c1=O`, the IC50 under setting [1] is 4 nM.

Regarding `CCOc1cccc(Cl)c1Cn1c(C)c(CC)c(O)c(NC(=O)N[C@@H](CC(=O)O)c2cccc(OC(C)C)c2)c1=O`, the IC50 under setting [1] is 5 nM.

For `Cc1ccc([C@H](CC(=O)O)NC(=O)Nc2c(O)c(C)cn(Cc3c(Cl)cccc3OCC(C)C)c2=O)cc1`, the IC50 under setting [1] was 22 nM.

On to `CCCOc1cccc([C@H](CC(=O)O)NC(=O)Nc2c(O)c3c(n(Cc4c(C)cccc4Cl)c2=O)CCC3)c1`, for which, under setting [1], the IC50 is 12 nM.

For `Cc1cccc(Cl)c1Cn1c2c(c(O)c(NC(=O)N[C@@H](CC(=O)O)c3cccc(OC4CCC4)c3)c1=O)CCC2`, under setting [1], the IC50 was 20 nM.

Regarding `Cc1cccc(Cl)c1Cn1c2c(c(O)c(NC(=O)N[C@@H](CC(=O)O)c3cccc(OC4CC4)c3)c1=O)CCC2`, the IC50 under setting [1] was 4 nM.

As for `CCC(CC)Oc1cccc([C@H](CC(=O)O)NC(=O)Nc2c(O)c3c(n(Cc4c(C)cccc4Cl)c2=O)CCC3)c1`, under setting [1], the IC50 was 22 nM.

With `Cc1cn(Cc2c(C)cccc2Cl)c(=O)c(NC(=O)N[C@@H](CC(=O)O)c2ccc3c(c2)CCO3)c1O`, the IC50 under setting [1] is 5 nM.

Take `CCOc1ccc([C@H](CC(=O)O)NC(=O)Nc2c(O)c(C)cn(Cc3c(C)cccc3Cl)c2=O)cc1OCC`: where the note is “Table 6, 30 minutes at 37° C.”, the IC50 was 3 nM.

As for `CCCOc1cccc(Cl)c1Cn1cc(C)c(O)c(NC(=O)N[C@@H](CC(=O)O)c2ccc(C)cc2)c1=O`, the IC50 under setting [1] is 10 nM.

On to `Cc1ccc(-c2ccc([C@H](CC(=O)O)NC(=O)Nc3c(O)ccn(Cc4ccccc4Cl)c3=O)cc2)cc1`, for which the IC50 under setting [1] was 40 nM.

Take `Cc1cccc(-c2ccc([C@H](CC(=O)O)NC(=O)Nc3c(O)ccn(Cc4ccccc4Cl)c3=O)cc2)c1`: the IC50 under setting [1] is 30 nM.

Consider `CCOc1cccc(-c2ccc([C@H](CC(=O)O)NC(=O)Nc3c(O)ccn(Cc4ccccc4Cl)c3=O)cc2)c1`, for which, under setting [1], the IC50 is 27 nM.

In the case of `CC(C)Cc1cccc([C@H](CC(=O)O)NC(=O)Nc2c(O)c3c(n(Cc4ccccc4Cl)c2=O)CCC3)c1`, the IC50 under setting [1] was 15 nM.

For the compound `CCC(CC)Oc1cccc([C@H](CC(=O)O)NC(=O)Nc2c(O)c3c(n(Cc4ccccc4Cl)c2=O)CCC3)c1`, the IC50 under setting [1] was 20 nM.

Regarding `O=C(O)C[C@H](NC(=O)Nc1c(O)c2c(n(Cc3ccccc3Cl)c1=O)CCC2)c1ccc2c(c1)CCO2`, the IC50 under setting [1] was 2 nM.

Take `O=C(O)C[C@H](NC(=O)Nc1c(O)c2c(n(Cc3ccccc3Cl)c1=O)CCC2)c1cccc(OC2CCC2)c1`: the IC50 under setting [1] was 17 nM.

Regarding `Cn1ccc2ccc([C@H](CC(=O)O)NC(=O)Nc3c(O)c4c(n(Cc5ccccc5Cl)c3=O)CCC4)cc21`, the IC50 under setting [1] is 3 nM.

On to `COc1ccc2cc([C@H](CC(=O)O)NC(=O)Nc3c(O)c4c(n(Cc5ccccc5Cl)c3=O)CCC4)ccc2c1`, for which the IC50 under setting [1] was 3 nM.

Take `CCOc1ccc2cc([C@H](CC(=O)O)NC(=O)Nc3c(O)c4c(n(Cc5ccccc5Cl)c3=O)CCC4)ccc2c1`: the IC50 under setting [1] is 15 nM.

For the compound `CCn1c(=O)n(CC)c2cc([C@H](CC(=O)O)NC(=O)Nc3c(O)c4c(n(Cc5ccccc5Cl)c3=O)CCC4)ccc21`, the IC50 under setting [1] is 4 nM.

For the compound `O=C(O)C[C@H](NC(=O)Nc1c(O)c2c(n(Cc3ccccc3Cl)c1=O)CCC2)c1cccc(OC2CC2)c1`, the IC50 under setting [1] was 4 nM.

As to `CCOc1c(Cl)ccc([C@H](CC(=O)O)NC(=O)Nc2c(O)c3c(n(Cc4ccccc4Cl)c2=O)CCC3)c1Cl`, under setting [1], the IC50 was 225 nM.

Consider `CCCOc1cccc([C@H](CC(=O)O)NC(=O)Nc2c(O)c3c(n(Cc4ccccc4Cl)c2=O)CCC3)c1`, for which, under setting [1], the IC50 was 15 nM.

On to `CCOc1cc([C@H](CC(=O)O)NC(=O)Nc2c(O)c3c(n(Cc4ccccc4Cl)c2=O)CCC3)ccc1Cl`, for which, under setting [1], the IC50 was 30 nM.

For the compound `O=C(O)C[C@H](NC(=O)Nc1c(O)c2c(n(Cc3ccccc3Cl)c1=O)CCC2)c1ccccc1`, under setting [1], the IC50 is 8 nM.

For `CCOc1ccc([C@H](CC(=O)O)NC(=O)Nc2c(O)c3c(n(Cc4ccccc4Cl)c2=O)CCC3)cc1OCC`, the IC50 (Table 6, 30 minutes at 37° C.) was 3 nM.

Turning to `O=C(O)C[C@H](NC(=O)Nc1c(O)c2c(n(Cc3ccccc3Cl)c1=O)CCC2)c1cccc(OC2CCCC2)c1`, the IC50 under setting [1] is 7 nM.

Take `COc1cc([C@H](CC(=O)O)NC(=O)Nc2c(O)c(C)cn(Cc3ccccc3Cl)c2=O)cc(OC)c1C`: the IC50 under setting [1] is 12 nM.

As for `COc1ccc(-c2ccc([C@H](CC(=O)O)NC(=O)Nc3c(O)c(C)cn(Cc4ccccc4Cl)c3=O)cc2)cc1`, the IC50 under setting [1] was 23 nM.

In the case of `Cc1cn(Cc2ccccc2Cl)c(=O)c(NC(=O)N[C@@H](CC(=O)O)c2ccc3ccn(C)c3c2)c1O`, the IC50 under setting [1] is 4 nM.

With `Cc1ccccc1-c1ccc([C@H](CC(=O)O)NC(=O)Nc2c(O)c(C)cn(Cc3ccccc3Cl)c2=O)cc1`, under setting [1], the IC50 is 55 nM.

As to `COc1ccccc1-c1ccc([C@H](CC(=O)O)NC(=O)Nc2c(O)c(C)cn(Cc3ccccc3Cl)c2=O)cc1`, under setting [1], the IC50 was 25 nM.

With `CCOc1cccc([C@H](CC(=O)O)NC(=O)Nc2c(O)c(C)c(C)n(Cc3ccccc3Cl)c2=O)c1`, where the note is “Table 6, 30 minutes at 37° C.”, the IC50 is 30 nM.

As to `Cc1ccc([C@H](CC(=O)O)NC(=O)Nc2c(O)c(C)cn(Cc3c(F)cccc3F)c2=O)cc1`, the IC50 (Table 6, 30 minutes at 37° C.) is 25 nM.

Take `COc1cc(Cn2cc(C)c(O)c(NC(=O)N[C@@H](CC(=O)O)c3ccc(C)cc3)c2=O)cc(OC)c1`: under “Table 6, 30 minutes at 37° C.”, the IC50 was 70 nM.

Take `CCOc1cccc(Cl)c1Cn1nc(C)c(O)c(NC(=O)N[C@@H](CC(=O)O)c2ccc(C)cc2)c1=O`: the IC50 under setting [1] is 7 nM.

In the case of `CCOc1cccc(Cl)c1Cn1nc(C)c(O)c(NC(=O)N[C@@H](CC(=O)O)c2cccc(OC(C)C)c2)c1=O`, the IC50 under setting [1] was 2 nM.

Regarding `CCc1nn(Cc2ccccc2Cl)c(=O)c(NC(=O)N[C@@H](CC(=O)O)c2ccc(C)cc2)c1O`, under setting [1], the IC50 is 22 nM.

In the case of `Cc1ccc([C@H](CC(=O)O)NC(=O)Nc2c(O)ccn(Cc3cccc(S(C)(=O)=O)c3)c2=O)cc1`, the IC50 (Table 6, 30 minutes at 37° C.) was 25 nM.

Take `CCOc1cccc([C@H](CC(=O)O)NC(=O)Nc2c(O)c(Cl)cn(Cc3c(Cl)cccc3OCC)c2=O)c1`: under setting [1], the IC50 was 3 nM.

In general, IC50 refers to the concentration needed to halve the response being measured.
